SMILES strings stand for the structures.

In assay [1] the target is mTOR (human recombinant aa mTOR 1360-2549) (Homo sapiens (Human), UniProt P42345). Nature of the assay: mTOR enzymatic test by TR-FRET (phosphorylation of GFP-4EBP1). The assay is classed as biochemical. The method in brief:
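TR-FRET detection of GFP-4EBP1 phosphorylation by a terbium-labelled anti-phospho-Thr46 antibody. Kinase reaction ran 30 min at room temperature, was quenched with EDTA (10 mM final) plus Tb-antibody (2 nM final) and left 60 min. Emission at 520 and 490 nm after 340 nm excitation, reported as the 520/490 ratio.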

In another assay the target is PI3Kα (p110α/p85α) (Homo sapiens (Human), UniProt P42336). In words: PI3Kα enzymatic test by measuring the consumption of ATP. The assay is classed as biochemical. The method in brief:
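p110α/p85α (1.7 μg/ml) with 50 μM PIP2 and 2 μM ATP in pH 7.5 Tris buffer with EGTA, MgCl2, Chaps, DTT; reaction 90 min. Remaining ATP measured by luciferin/luciferase luminescence; IC50 from threefold serial dilutions spanning at least 10 000-fold.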

Another assay relates to U87MG tumour cells. In words: Test of in vitro proliferation of U87MG tumour cells. Conditions: Homo sapiens, U-87 MG, 72 h, U87MG cells, 72 hours; read-out: U87 Cell Proliferation IC50. The assay is classed as cell-based. As for the experimental part:
Model 4: Test of in vitro Proliferation of U87MG Tumour Cells.
The cell growth is determined with the reagent CellTiter 96 AQueous One Solution Cell Proliferation Assay from Promega (Cat. No. G3581).

The test system of the next assay is Akt-pS473 in U87MG cells. Conditions: Homo sapiens, U-87 MG, read-out: U87 Akt-pS473 % Inhibition or IC50, nM (IC50), U87MG cells.

Chain of PI3Kα (p110α/p85α) (P42336 whole entry): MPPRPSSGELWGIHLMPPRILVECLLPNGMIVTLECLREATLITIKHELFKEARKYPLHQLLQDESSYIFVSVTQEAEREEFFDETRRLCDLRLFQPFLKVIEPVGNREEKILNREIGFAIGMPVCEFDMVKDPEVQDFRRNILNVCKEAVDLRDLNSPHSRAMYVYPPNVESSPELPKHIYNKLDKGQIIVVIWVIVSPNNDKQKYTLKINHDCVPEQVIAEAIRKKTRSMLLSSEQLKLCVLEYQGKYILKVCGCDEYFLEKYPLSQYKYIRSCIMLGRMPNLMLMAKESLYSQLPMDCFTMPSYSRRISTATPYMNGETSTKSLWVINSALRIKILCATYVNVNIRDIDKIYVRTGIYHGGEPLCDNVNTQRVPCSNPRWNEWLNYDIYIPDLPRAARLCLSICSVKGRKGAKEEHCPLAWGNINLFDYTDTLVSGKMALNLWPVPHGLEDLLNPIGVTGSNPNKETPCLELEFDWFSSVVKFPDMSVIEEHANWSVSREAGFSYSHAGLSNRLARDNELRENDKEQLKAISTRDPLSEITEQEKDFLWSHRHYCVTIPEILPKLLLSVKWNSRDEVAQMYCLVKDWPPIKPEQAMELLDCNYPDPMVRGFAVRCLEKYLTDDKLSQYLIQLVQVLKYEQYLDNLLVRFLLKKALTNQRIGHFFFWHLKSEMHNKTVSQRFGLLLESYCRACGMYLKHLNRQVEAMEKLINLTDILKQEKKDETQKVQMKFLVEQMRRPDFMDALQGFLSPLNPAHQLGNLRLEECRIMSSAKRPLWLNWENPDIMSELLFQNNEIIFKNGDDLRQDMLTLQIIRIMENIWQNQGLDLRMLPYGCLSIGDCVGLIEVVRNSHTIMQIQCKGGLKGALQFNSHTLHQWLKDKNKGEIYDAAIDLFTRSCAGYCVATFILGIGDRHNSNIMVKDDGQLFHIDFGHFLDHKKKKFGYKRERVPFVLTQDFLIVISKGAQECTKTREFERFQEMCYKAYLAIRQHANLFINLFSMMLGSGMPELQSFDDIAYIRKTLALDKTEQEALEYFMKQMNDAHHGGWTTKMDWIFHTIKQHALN
Chain of PI3Kα (p110α/p85α) (P27986 whole entry partner): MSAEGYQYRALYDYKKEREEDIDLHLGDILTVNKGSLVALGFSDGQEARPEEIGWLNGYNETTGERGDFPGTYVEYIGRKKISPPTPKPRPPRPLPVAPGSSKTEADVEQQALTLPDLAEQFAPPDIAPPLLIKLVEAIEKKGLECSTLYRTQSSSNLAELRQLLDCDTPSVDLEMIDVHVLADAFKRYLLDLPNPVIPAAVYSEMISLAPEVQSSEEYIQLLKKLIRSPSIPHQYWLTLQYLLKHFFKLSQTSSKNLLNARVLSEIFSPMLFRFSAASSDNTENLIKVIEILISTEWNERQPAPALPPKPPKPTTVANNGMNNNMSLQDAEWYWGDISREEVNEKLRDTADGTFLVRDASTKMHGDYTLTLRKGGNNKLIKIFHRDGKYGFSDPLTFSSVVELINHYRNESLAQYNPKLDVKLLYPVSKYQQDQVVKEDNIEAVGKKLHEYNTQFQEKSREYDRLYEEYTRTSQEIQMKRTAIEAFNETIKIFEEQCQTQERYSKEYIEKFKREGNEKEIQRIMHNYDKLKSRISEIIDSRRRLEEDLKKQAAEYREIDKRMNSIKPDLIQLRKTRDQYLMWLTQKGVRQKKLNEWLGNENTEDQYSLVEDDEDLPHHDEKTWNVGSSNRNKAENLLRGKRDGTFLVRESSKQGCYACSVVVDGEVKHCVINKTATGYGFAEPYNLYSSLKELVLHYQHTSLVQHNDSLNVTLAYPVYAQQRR
Chain of mTOR (human recombinant aa mTOR 1360-2549) (P42345 1360-2549): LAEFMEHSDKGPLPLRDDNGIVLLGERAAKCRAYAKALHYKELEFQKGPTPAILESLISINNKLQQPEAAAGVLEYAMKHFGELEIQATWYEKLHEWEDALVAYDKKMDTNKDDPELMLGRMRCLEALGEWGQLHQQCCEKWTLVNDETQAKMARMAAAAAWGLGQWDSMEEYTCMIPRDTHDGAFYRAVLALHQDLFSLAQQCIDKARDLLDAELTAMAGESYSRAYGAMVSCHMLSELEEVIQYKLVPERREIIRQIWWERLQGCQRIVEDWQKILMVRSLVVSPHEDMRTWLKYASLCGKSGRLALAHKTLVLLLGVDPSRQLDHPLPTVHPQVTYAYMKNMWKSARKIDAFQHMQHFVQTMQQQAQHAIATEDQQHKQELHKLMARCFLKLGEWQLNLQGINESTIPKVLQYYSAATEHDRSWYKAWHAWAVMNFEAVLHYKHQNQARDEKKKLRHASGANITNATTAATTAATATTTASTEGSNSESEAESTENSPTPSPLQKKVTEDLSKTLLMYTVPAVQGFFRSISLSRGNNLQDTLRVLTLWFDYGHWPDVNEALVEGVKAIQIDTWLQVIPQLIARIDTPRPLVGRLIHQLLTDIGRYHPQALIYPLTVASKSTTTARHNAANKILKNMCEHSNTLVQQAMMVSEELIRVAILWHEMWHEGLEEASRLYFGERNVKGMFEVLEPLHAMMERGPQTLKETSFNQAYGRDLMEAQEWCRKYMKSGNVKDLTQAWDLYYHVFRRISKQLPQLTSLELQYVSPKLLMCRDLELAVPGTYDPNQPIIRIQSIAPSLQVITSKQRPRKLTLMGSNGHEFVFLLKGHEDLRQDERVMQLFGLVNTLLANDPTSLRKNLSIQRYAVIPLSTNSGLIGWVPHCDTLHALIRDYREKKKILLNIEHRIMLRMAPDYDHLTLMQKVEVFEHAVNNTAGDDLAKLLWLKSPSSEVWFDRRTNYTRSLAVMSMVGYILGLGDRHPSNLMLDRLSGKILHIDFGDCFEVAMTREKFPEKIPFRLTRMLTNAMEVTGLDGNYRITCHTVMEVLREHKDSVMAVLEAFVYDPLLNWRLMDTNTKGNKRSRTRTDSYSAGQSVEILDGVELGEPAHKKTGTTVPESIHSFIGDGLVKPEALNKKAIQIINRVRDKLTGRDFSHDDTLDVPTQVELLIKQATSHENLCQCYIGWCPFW

`CCN1CC(C)(C)Oc2nc(N3C4CCC3COC4)nc(-c3ccc(NC(=O)OCCO)cc3F)c2C1=O` [Example 243, {4-[6-Ethyl-8,8-dimethyl-2-(3-oxa-8-azabicyclo[3.2.1]oct-8-yl)-5-oxo-5,6,7,8-tetrahydro-9-oxa-1,3,6-triazabenzocyclohepten-4-yl]-3-fluorophenyl}carbamic acid 2-hydroxyethyl ester]: the IC50 in assay [1] is 63 nM; in the assay on U87MG tumour cells, 610 nM; in the assay with Akt-pS473 in U87MG cells it was 160 nM. Moreover, the “PI3Ka IC50” value on PI3Kα (p110α/p85α) is given as 3870 nM.

As to `CCN1CC(C)(C)Oc2nc(N3CC4CCC(C3)O4)nc(-c3ccc(NC(=O)Nc4ccncc4)cc3F)c2C1=O` [Example 71, 1-{4-[6-Ethyl-8,8-dimethyl-2-(8-oxa-3-azabicyclo[3.2.1]oct-3-yl)-5-oxo-5,6,7,8-tetrahydro-9-oxa-1,3,6-triazabenzocyclohepten-4-yl]-3-fluorophenyl}-3-pyridin-4-ylurea], the IC50 in assay [1] is 21 nM; with U87MG tumour cells, 209 nM; in the assay with Akt-pS473 in U87MG cells it was 59 nM. Further, the “PI3Ka IC50” value at PI3Kα (p110α/p85α) is greater than 10000 nM.

Regarding `CCN1CC(C)(C)Oc2nc(N3CC4CCC(C3)O4)nc(-c3ccc(NC(=O)Nc4ccnc5[nH]ccc45)c(F)c3)c2C1=O` [Example 86, 1-{4-[6-Ethyl-8,8-dimethyl-2-(8-oxa-3-azabicyclo[3.2.1]oct-3-yl)-5-oxo-5,6,7,8-tetrahydro-9-oxa-1,3,6-triazabenzocyclohepten-4-yl]-2-fluorophenyl}-3-(1H-pyrrolo[2,3-b]pyridin-4-yl)urea], the IC50 in assay [1] amounted to 377 nM; in the assay on U87MG tumour cells, 490 nM; in the assay with Akt-pS473 in U87MG cells it was 144 nM. Also, the “PI3Ka IC50” value at PI3Kα (p110α/p85α) is listed as greater than 10000 nM.

Regarding `CCN1CC(C)(C)Oc2nc(N3CC4CCC(C3)O4)nc(-c3ccc(NC(=O)Nc4ccc(C#N)nc4)c(F)c3)c2C1=O` [Example 247, 1-(6-Cyanopyridin-3-yl)-3-{4-[6-ethyl-8,8-dimethyl-2-(8-oxa-3-azabicyclo[3.2.1]oct-3-yl)-5-oxo-5,6,7,8-tetrahydro-9-oxa-1,3,6-triazabenzocyclohepten-4-yl]-2-fluorophenyl}urea], the IC50 was 26 nM in assay [1], 62 nM in the assay on U87MG tumour cells and 8 nM with Akt-pS473 in U87MG cells. In addition, the “PI3Ka IC50” value at PI3Kα (p110α/p85α) was 7200 nM.

Take `CCN1CC(C)(C)Oc2nc(N3C4CCC3COC4)nc(-c3ccc(NC(=O)Nc4ccc(N5CCOCC5(C)C)nc4)c(F)c3)c2C1=O` [Example 257, 1-[6-(3,3-Dimethylmorpholin-4-yl)pyridin-3-yl]-3-{4-[6-ethyl-8,8-dimethyl-2-(3-oxa-8-azabicyclo[3.2.1]oct-8-yl)-5-oxo-5,6,7,8-tetrahydro-9-oxa-1,3,6-triazabenzocyclohepten-4-yl]-2-fluorophenyl}urea]: the figures for the IC50 (in assay [1]; in the assay with U87MG tumour cells; in the assay with Akt-pS473 in U87MG cells) were 142 nM, 63 nM and 46 nM, respectively. Further, the “PI3Ka IC50” value on PI3Kα (p110α/p85α) is recorded as greater than 10000 nM.

Consider `CCN1CC(C)(C)Oc2nc(N3CC4CCC(C3)O4)nc(-c3ccc(NC(=O)NCCOC)c(F)c3)c2C1=O` [Example 131, 1-{4-[6-Ethyl-8,8-dimethyl-2-(8-oxa-3-azabicyclo[3.2.1]oct-3-yl)-5-oxo-5,6,7,8-tetrahydro-9-oxa-1,3,6-triazabenzocyclohepten-4-yl]-2-fluorophenyl}-3-(2-methoxyethyl)urea], for which the IC50 stood at 383 nM in assay [1], 5900 nM with U87MG tumour cells and 1990 nM with Akt-pS473 in U87MG cells. On PI3Kα (p110α/p85α), the “PI3Ka IC50” value was greater than 10000 nM.

Consider `CCN1CC(C)(C)Oc2nc(N3CCOC[C@@H]3C)nc(-c3ccc(NC(=O)Nc4ccc(N5CCOCC5(C)C)nc4)c(F)c3)c2C1=O` [Example 256, 1-[6-(3,3-Dimethylmorpholin-4-yl)pyridin-3-yl]-3-{4-[6-ethyl-8,8-dimethyl-2-((S)-3-methylmorpholin-4-yl)-5-oxo-5,6,7,8-tetrahydro-9-oxa-1,3,6-triazabenzocyclohepten-4-yl]-2-fluorophenyl}urea], for which the IC50 stood at 196 nM in assay [1], 83 nM with U87MG tumour cells and 42 nM in the assay on Akt-pS473 in U87MG cells. Besides, the “PI3Ka IC50” value on PI3Kα (p110α/p85α) turned out to be 199 nM.

With `Cc1cc(NC(=O)Nc2ccc(-c3nc(N4CC5CCC(C4)O5)nc4c3C(=O)N(C3CCOCC3)CC(C)(C)O4)cc2)no1` [Example 15, 1-{4-[8,8-dimethyl-2-(8-oxa-3-azabicyclo[3.2.1]oct-3-yl)-5-oxo-6-(tetrahydropyran-4-yl)-5,6,7,8-tetrahydro-9-oxa-1,3,6-triazabenzocyclohepten-4-yl]phenyl}-3-(5-methylisoxazol-3-yl)urea], the IC50 is 12 nM in assay [1], 218 nM in the assay with U87MG tumour cells and 76 nM with Akt-pS473 in U87MG cells. On PI3Kα (p110α/p85α), the “PI3Ka IC50” value is 5300 nM.

`CCOC(=O)Nc1ccc(-c2nc(N3CC4CCC(C3)O4)nc3c2C(=O)N(CC)CC(C)(C)O3)cc1` [Example 106, {4-[6-Ethyl-8,8-dimethyl-2-(8-oxa-3-azabicyclo[3.2.1]oct-3-yl)-5-oxo-5,6,7,8-tetrahydro-9-oxa-1,3,6-triazabenzocyclohepten-4-yl]phenyl}carbamic acid ethyl ester]: the IC50 in assay [1] turned out to be 442 nM; in the assay with U87MG tumour cells, 6560 nM; with Akt-pS473 in U87MG cells it was 767 nM. Also, the “PI3Ka IC50” value at PI3Kα (p110α/p85α) was greater than 10000 nM.

For `C[C@H]1COCCN1c1ccc(NC(=O)Nc2ccc(-c3nc(N4C5CCC4COC5)nc4c3C(=O)N(C)CC(C)(C)O4)cc2F)cn1` [Example 74, 1-{2-Fluoro-4-[6,8,8-trimethyl-2-(3-oxa-8-azabicyclo[3.2.1]oct-8-yl)-5-oxo-5,6,7,8-tetrahydro-9-oxa-1,3,6-triazabenzocyclohepten-4-yl]phenyl}-3-[6-((S)-3-methylmorpholin-4-yl)pyridin-3-yl]urea], the IC50 worked out at 64 nM in assay [1], 126 nM in the assay with U87MG tumour cells and 31 nM with Akt-pS473 in U87MG cells. Moreover, the “PI3Ka IC50” value at PI3Kα (p110α/p85α) was greater than 10000 nM.

For the compound `CCNC(=O)Nc1ccc(-c2nc(N3CC4CCC(C3)O4)nc3c2C(=O)N(CCOC)CC(C)(C)O3)cc1F` [Example 211, 1-Ethyl-3-{2-fluoro-4-[6-(2-methoxyethyl)-8,8-dimethyl-2-(8-oxa-3-azabicyclo[3.2.1]oct-3-yl)-5-oxo-5,6,7,8-tetrahydro-9-oxa-1,3,6-triazabenzocyclohepten-4-yl]phenyl}urea], the IC50 in assay [1] stood at 87 nM; in the assay on U87MG tumour cells, 894 nM; with Akt-pS473 in U87MG cells, 270 nM. For the same compound, the “PI3Ka IC50” value on PI3Kα (p110α/p85α) was greater than 10000 nM.

As to `CCN1CC(C)(C)Oc2nc(N3C4CCC3COC4)nc(-c3ccc(NC(=O)Nc4ccccn4)cc3)c2C1=O` [Example 63, 1-{4-[6-Ethyl-8,8-dimethyl-2-(3-oxa-8-azabicyclo[3.2.1]oct-8-yl)-5-oxo-5,6,7,8-tetrahydro-9-oxa-1,3,6-triazabenzocyclohepten-4-yl]phenyl}-3-pyridin-2-ylurea], the IC50 in assay [1] is 31 nM; in the assay with U87MG tumour cells, 190 nM; in the assay on Akt-pS473 in U87MG cells, 31 nM. The “PI3Ka IC50” value at PI3Kα (p110α/p85α) is reported as greater than 10000 nM.

As to `CCNC(=O)Nc1ccc(-c2nc(N3CCOCC3)nc3c2C(=O)N(CC)CC(C)(C)O3)cc1` [Example 96, 1-Ethyl-3-[4-(6-ethyl-8,8-dimethyl-2-morpholin-4-yl-5-oxo-5,6,7,8-tetrahydro-9-oxa-1,3,6-triazabenzocyclohepten-4-yl)phenyl]urea], the IC50 in assay [1] was found to be 72 nM; in the assay on U87MG tumour cells, 1470 nM; in the assay with Akt-pS473 in U87MG cells it was 107 nM. Further, the “PI3Ka IC50” value at PI3Kα (p110α/p85α) is listed as 1444 nM.
